In patent US12551499B2 (Atea Pharmaceuticals, Inc., priority 2020, dated 2026):
Like-named read-outs stand apart in the source and are kept apart here.

Tests used:
[1] = tested on: human bronchial epithelial cells; conditions: 10 μM
[2] = tested on: human nasal epithelial cells; conditions: 10 μM
[3] = tested on: RSV; conditions: RSV-infected HAE cells; read-out: in vitro EC90; cited from earlier work
[4] = Plasma PK in non-human primates after oral Compound 2A; conditions: monkey plasma, oral Compound 2A 60 mg/kg then 30 mg/kg every 12 h, steady state
[5] = tested on: HCV; conditions: HCV-infected subjects, up to 12 weeks; cited from earlier work
[6] = tested on: human airway epithelial (HAE) cells
[7] = tested on: SARS-CoV-2 (WA1); experiment: Virus yield reduction assay, SARS-CoV-2 in dNHBE / HAE cells; type: cell-based
Description: The antiviral activity of Compound 1A was next evaluated against SARS-CoV-2 (WA1) using differentiated normal human bronchial epithelial (dNHBE; HAE (human airway epithelial) cells made to order by MatTek Corporation (Ashland, MA).
Cell Culture: dNHBE cells were grown on 6 mm mesh disks and arrived in kits with either 12- or 24-well transwell inserts. During transportation the tissues were stabilized on a sheet of agarose, which was removed upon receipt. One insert was estimated to consist of approximately 1.2×10^6 cells. Kits of cell inserts (EpiAirway™ AIR-100, AIR-112) originated from a single donor, #9831, a healthy, non-smoking person. The cells have unique properties in forming layers, the apical side of which is exposed only to air and that creates a mucin layer. Upon arrival, the cell transwell inserts were immediately transferred to individual wells of a 6-well plate according to manufacturer's instructions, and 1 mL of MatTek's proprietary culture medium (AIR-100-MM) was added to the basolateral side, whereas the apical side was exposed to a humidified 5% CO2 environment. Cells were cultured at 37° C. for one day before the start of the experiment. After the 24 hour equilibration period, the mucin layer, secreted from the apical side of the cells, was removed by washing with 400 μL pre-warmed 30 mM HEPES buffered saline solution 3×. Culture medium was replenished following the wash steps.
Viruses: Virus was diluted in AIR-100-MM medium before infection, yielding a multiplicity of infection (MOI) of approximately 0.0015 CCID50 per cell.
The cells were maintained at the air-liquid interface.
Determination of virus titers from each treated cell culture: Vero 76 cells were seeded in 96-well plates and grown overnight (37° C.) to confluence. Samples containing virus were diluted in 10-fold increments in infection medium and 200 μL of each dilution transferred into respective wells of a 96-well microtiter plate. Four microwells were used for each dilution to determine 50% viral endpoints. After 5 days of incubation, each well was scored positive for virus if any cytopathic effect (CPE) was observed as compared with the uninfected control and counts were confirmed for endpoint on days 6 and 7. […] The day 5 values were reported. Untreated, uninfected cells were used as the cell controls.
The antiviral activities of test compounds were evaluated against SARS-CoV-2 (USA-WA1/2020) using made to order human airway epithelial (HAE) cells.
Cell Culture: HAE cells were grown on 6 mm mesh disks and arrived in kits with either 12- or 24-well transwell inserts. During transportation the tissues were stabilized on a sheet of agarose, which was removed upon receipt. One insert was estimated to consist of approximately 1.2×10^6 cells. Kits of cell inserts (EpiAirway™ AIR-100 or AIR-112) originated from a single donor, #9831, a healthy, non-smoking person. The cells form polarized monolayers, the apical side of which is exposed to air and creates a mucin layer. Upon arrival, the cell transwell inserts were immediately transferred to individual wells of a 6-well plate according to the manufacturer's instructions, and 1 mL of MatTek's proprietary culture medium (AIR-100-MM) was added to the basolateral side, whereas the apical side was exposed to a humidified 5% CO2 environment. Cells were cultured at 37° C. in a humidified atmosphere containing 5% CO2 for one day before the start of the experiment. After the 24-h equilibration period, the mucin layer, secreted from the apical side of the cells, was removed by washing with 400 μL pre-warmed 30 mM HEPES buffered saline solution 3×. Culture medium was replenished following the wash steps.
Viruses: Virus was diluted in AIR-100-MM medium before infection to yield a MOI when added to cultures of approximately 0.0015 CCID50 per cell.
Select compounds of the present invention were tested in a SARS-CoV-2 assay. […]

[8] = in vitro; conditions: human
[9] = Severe acute respiratory syndrome coronavirus 2, HAE, SARS-CoV-2 in HAE (dNHBE) cells, Table 11, read-out: VYR Assay EC90
[10] = Severe acute respiratory syndrome coronavirus 2, HAE, SARS-CoV-2, Table 11B, read-out: VYR Assay EC90

Nc1ccn([C@@H]2O[C@@](CO)(CCl)[C@@H](O)[C@H]2F)c(=O)n1 [ALS-8112, reference compound]
ratio of triphosphate from Compound 1A vs. comparator ([1]; 8 h): 2 | ratio of triphosphate from Compound 1A vs. comparator ([1]; 15 h): 5 | ratio of triphosphate from Compound 1A vs. comparator ([2]; 8 h): 1 | ratio of triphosphate from Compound 1A vs. comparator ([2]; 15 h): 3 | EC90 [3]: 1.3 to 2.7 µM

C[C@@]1(F)[C@H](O)[C@@H](CO)O[C@H]1n1cnc2c(=O)[nH]c(N)nc21 [Compound 1-7, 2-amino-9-((2R,3R,4R,5R)-3-fluoro-4-hydroxy-5-(hydroxymethyl)-3-methyltetrahydrofuran-2-yl)-1,9-dihydro-6H-purin-6-one]
Cmax [4]: 160 nM | Tmax [4]: 2 h

CNc1nc(N)nc2c1ncn2[C@@H]1O[C@H](CO[P@@](=O)(N[C@@H](C)C(=O)OC(C)C)Oc2ccccc2)[C@@H](O)[C@@]1(C)F [Compound 2A]
safety and tolerability [5]: safe and well-tolerated

[2H]C([2H])([2H])[C@@]1(F)[C@H](O)[C@@H](CO[P@@](=O)(N[C@@H](C)C(=O)OC(C)C)Oc2ccccc2)O[C@H]1n1cnc2c(NC)nc(N)nc21 [Compound 5, Isopropyl ((S)-(((2R,3R,4R,5R)-5-(2-amino-6-(methylamino)-9H-purin-9-yl)-4-fluoro-3-hydroxy-4-methyltetrahydrofuran-2-yl)methoxy)(phenoxy)phosphoryl)-L-alaninate]
VYR Assay CC50 [6]: no visual tox | EC90 [7, 9]: 0.31 µM

CNc1nc(N)nc2c1ncn2[C@@H]1O[C@H](CO[P@@](=O)(N[C@@H](C)C(=O)OC(C)C)Oc2ccccc2)[C@@H](O)[C@]1(F)CF [Compound 6, Isopropyl ((S)-(((2R,3R,4R,5R)-5-(2-amino-6-(methylamino)-9H-purin-9-yl)-4-fluoro-4-(fluoromethyl)-3-hydroxytetrahydrofuran-2-yl)methoxy)(phenoxy)phosphoryl)-L-alaninate]
VYR Assay CC50 [6]: no visual tox | EC90 [7, 9]: 1.8 µM

C#C[C@@]1(F)[C@H](O)[C@@H](CO[P@@](=O)(N[C@@H](C)C(=O)OC(C)C)Oc2ccccc2)O[C@H]1n1cnc2c(NC)nc(N)nc21 [Compound 7, Isopropyl ((S)-(((2R,3R,4R,5R)-5-(2-amino-6-(methylamino)-9H-purin-9-yl)-4-ethynyl-4-fluoro-3-hydroxytetrahydrofuran-2-yl)methoxy)(phenoxy)phosphoryl)-L-alaninate]
VYR Assay CC50 [6]: no visual tox | EC90 [7, 9]: 3.2 µM

C=C[C@@]1(F)[C@H](O)[C@@H](CO[P@@](=O)(N[C@@H](C)C(=O)OC(C)C)Oc2ccccc2)O[C@H]1n1cnc2c(NC)nc(N)nc21 [Compound 8, Isopropyl ((S)-(((2R,3R,4R,5R)-5-(2-amino-6-(methylamino)-9H-purin-9-yl)-4-fluoro-3-hydroxy-4-vinyltetrahydrofuran-2-yl)methoxy)(phenoxy)phosphoryl)-L-alaninate]
VYR Assay CC50 [6]: no visual tox | EC90 [7, 9]: 6.4 µM

CNc1nc(N)nc2c1ncn2[C@@H]1O[C@H](CO[P@@](=O)(N[C@@H](C)C(=O)OC(C)C)Oc2ccccc2)[C@@H](O)[C@]1(F)CO [Compound 9, Isopropyl ((S)-(((2R,3R,4R,5R)-5-(2-amino-6-(methylamino)-9H-purin-9-yl)-4-fluoro-3-hydroxy-4-(hydroxymethyl)tetrahydrofuran-2-yl)methoxy)(phenoxy)phosphoryl)-L-alaninate]
VYR Assay CC50 [6]: no visual tox | EC90 [7, 9]: 8.5 µM

CC(C)OC(=O)[C@H](C)NP(=O)(OC[C@H]1O[C@@H](n2cnc3c(NC4CC4)nc(N)nc32)[C@@](F)(CO)[C@@H]1O)Oc1ccccc1 (stereo partly drawn) [Compound 10, Isopropyl ((((2R,3R,4R,5R)-5-(2-amino-6-(cyclopropylamino)-9H-purin-9-yl)-4-fluoro-3-hydroxy-4-(hydroxymethyl)tetrahydrofuran-2-yl)methoxy)(phenoxy)phosphoryl)-L-alaninate]
VYR Assay CC50 [6]: no visual tox | EC90 [7, 9]: 5.3 µM

CNc1nc(N)nc2c1ncn2[C@@H]1O[C@H](CO[P@@](=O)(N[C@@H](C)C(=O)OC(C)C)Oc2ccccc2)[C@@H](O)[C@]1(F)C(F)(F)F [Compound 11A]
VYR Assay CC50 [6]: no visual tox | EC90 ([7]; Severe acute respiratory syndrome coronavirus 2, HAE, read-out: VYR Assay EC90, SARS-CoV-2 in HAE (dNHBE) cells, Table 11): 3.7 µM

Cc1nc2nccnc2n1[C@@H]1O[C@H](COP(=O)(N[C@@H](C)C(=O)OC(C)C)Oc2ccccc2)[C@@H](O)[C@]1(F)C(F)(F)F (stereo partly drawn) [Compound 12]
EC90 [7, 10]: 1.5 µM

Cc1ncc2ncn([C@@H]3O[C@H](COP(=O)(N[C@@H](C)C(=O)OC(C)C)Oc4ccccc4)[C@@H](O)[C@]3(F)C(F)(F)F)c2n1 (stereo partly drawn) [Compound 13]
EC90 [7, 10]: 3.2 µM

CC(C)OC(=O)[C@H](C)NP(=O)(OC[C@H]1O[C@@H](Oc2ncc(Br)nc2C(N)=O)[C@@](F)(C(F)(F)F)[C@@H]1O)Oc1ccccc1 (stereo partly drawn) [Compound 14]
EC90 [7, 10]: 0.57 µM

CC(C)OC(=O)[C@H](C)N[P@](=O)(OC[C@H]1O[C@@](C#N)(n2ncc3c(N)ncnc32)[C@H](F)[C@@H]1O)Oc1ccccc1 [Compound 15]
EC90 [7, 10]: 1.1 µM

O=c1nc(NO)ccn1[C@@H]1O[C@H](CO)[C@@H](O)[C@H]1O [N^4-hydroxycytidine, reference compound]
Selectivity Index (CC50/EC90) ([7]; SARS-CoV-2 in HAE, Table 5): >5.1 | EC90 ([7]; SARS-CoV-2 in HAE, footnotes f, g, h of Table 5, read-out: EC90, single replicates): 3.1 µM | potency relative to Compound 1A (times less) ([7]; SARS-CoV-2 in HAE, same experiment): 8 times

CC(C)OC(=O)[C@H](C)N[P@](=O)(OC[C@H]1O[C@@H](n2ccc(=O)[nH]c2=O)[C@](C)(F)[C@@H]1O)Oc1ccccc1 [Sofosbuvir, reference compound]
VYR Assay CC50 [6]: no visual tox | EC90 [7, 9]: > 19 µM

CCN(CC)CCCC(C)Nc1ccnc2cc(Cl)ccc12 (stereo not drawn) [chloroquine]
CC50 [8]: 21 µM

CCN(CCO)CCCC(C)Nc1ccnc2cc(Cl)ccc12 (stereo not drawn) [hydroxychloroquine]
CC50 [8]: 26 µM
